Patent publication US6458585B1, “Cytokine-free culture of dendritic cells” (Nexell Therapeutics Inc., priority 1996, dated 2002)

Assays:
Format in all cases: cell-based, human
[1] = test system: T cells; assay: Allogeneic MLR with bulk PBMNC cultures grown with non-cytokine additives
Procedure: MLR's were setup using T cells as responders and dendritic cell enriched cultures as antigen presenters. Sheep red blood cells were prepared and used to erythrocyte rosette T cells from a MNC preparation as described in “Current Protocols in Immunology”, John Wiley & Sons Inc, 1995. Vol. 2, 7.2.1-7.2.4. Erythrocyte+(E+ ) T cells were resuspended to 1×10^6 cells/ml in RPMI 1640/10% FCS. Dendritic cells were resuspended to 1×10^6 cells/ml in RPMI 1640/10% FCS and mitomycin C was added at 25 ug/ml to inhibit proliferation. The tubes were incubated at 37° C. for 30 min. then washed 3 times with PBS-CMF/1% HA. […] […] The appropriate control wells were also prepared. Plates were incubated for 4 or 5 days at 37° C.
Each well was pulsed with 1 uCi of ^3H-thymidine in RPMI 1640/10% FCS. Plates were incubated overnight at 37° C.
Plates were harvested onto glass fiber filter strips using a cell harvester. Discs were placed into scintillation vials containing scintillation cocktail and samples were counted using a beta radiation counter.
(§1) Cytospin slide preparation, Wright-Geimsa and immunohistochemical staining of the cultured cells were conducted as described in Example 1 and 2 above. Mixed lymphocyte reactions (MLR's) were setup using T cells (responders) and dendritic cell enriched cultures (stimulators) from bulk PBMNC cultures, as described above in Example 1.
The functional capacity of cultured cells to induce T cell proliferation was measured in an allogeneic MLR. […] At the greatest ratio of 1:100, the differences in capacity to induce T cell proliferation is marginal between the GM-CSF/IL-4 cultured cells and the non-cytofine additive cultured cells.

[2] = test system: Bulk PBMNC; assay: Morphologically identified dendritic cells in bulk PBMNC cultures with non-cytokine additives
Procedure: Cytofunnels were attached to microscope slides. 50,000 to 100,000 cells were removed from each culture and resuspended in approximately 100 to 200 ul of PBS-CMF. Slides were placed in the Cytospin® centrifuge and spun at 100 rpm for 4 min. Cytofunnels were removed from the slides and the slides were air dried for 1 minute. Ten drops of Wright-Geimsa stain were placed onto each slide and allowed to fix for 1 to 2 minutes. Ten drops of water were added to each slide and allowed to sit for 2 to 4 minutes. The slides were rinsed and air dried.
Reading of Cytospin Slides: Slides were read under phase contrast microscopy, 40× and 60× oil magnification. One hundred cells were identified and characterized morphologically as either dendritic cells or non-dendritic cells (lymphocytes and monocyte, or CD34+-derived cells in those cases). Digital images were taken using a color monitor and color video printer.
Culture of Bulk PBMNC: PBMNC cells were cultured in X-VIVO 15™ supplemented with 2 mM L- glutamine. Cultures were initiated at 5×^05 cells/ml in PL2417 gas-permeable containers (20 ml). GM-CSF and IL-4 were added to the cultures at final concentrations of 50 ng/ml and 1000 U/ml or non-cytokine additives such as Vitamin D3 at 2.5 uM, Vitamin E at 0.1%, Linoleic Acid at 5 ug/ml, or Ca++ Ionophore at 10 mM. Addition and subtraction of cells, media, and growth factors to and from PL2417 gas-permeable containers was accomplished by spiking a Sampling Site Coupler into the sample port of the container followed by use of syringes and needles. Cells were cultured in a 5% CO2, ambient O2, 37° C. humidified incubator for 7 days.
as §1

[3] = test system: adherent PBMNC; assay: S100 immunohistochemistry of plastic adherent cells cultured with non-cytokine additives; settings: for percentage of S100+ cells: without GM-CSF added to additives
Procedure: Immunocytochemical staining: PBS (phosphate buffered saline) was made by dissolving 5 PBS tablets into 1000 ml millipore water. Cytospin slides were soaked in PBS. […] Slides were rinsed with PBS one time. Non-specific binding sites were blocked by incubating with normal serum matching source of secondary antibody (i.e. if secondary antibody is biotinylated goat-anti-mouse, used normal goat serum) at room temp. for 15 min. in a humidified environment. Excess serum was shaken from slides and placed 100 ul of primary antibody on slide, making sure cells are covered with liquid and incubated in humidified environment, room temp, for one hour. Negative control slides were incubated with normal serum for this hour. Slides were rinsed 3 times with PBS. Slides were incubated with biotinylated antibody reactive against the primary antibody (i.e. if primary antibody is mouse-anti-human, use a biotinylated goat-anti-mouse antibody) for 1 hour in humidity. Slides were rinsed 3 times with PBS. Slides were incubated with streptavidin-peroxidase, 2 drops/slide, for 30 min. in humidity. Slides were rinsed 3 times with PBS.
Chromagen solution was made with 5 ml millipore water+2 drops of chromagen buffer+1 drop of concentrated chromagen+1 drop of substrate, and 4-5 drops were added to each slide. […] Slides were counterstained with hematoxylin for about 5 min, or until cell nuclei were stained purple. Cells were rinsed with tap water and allowed to air dry. Slides were covered with crystal mount and oven dried at 80 degrees for 15 min. Slides were allowed to cool, then coversliped with mounting medium.
Enrichment and Culture of Adherent Cells Using Polystyrene Tissue Culture Plates: PBMNC were resuspended in culture media (X-VIVO 15™+10% autologous serum) at 2×10^6 cells/ml. Cells were placed into 48 well polystyrene tissue culture plates […] and incubated for 2 hours in a 5% CO2, ambient O2, 37° C. humidified incubator. Non-adherent cells were removed from the plates then wells were rinsed with X-VIVO 15™ containing no serum. Cells remaining in the wells were adherent cells. These cells were cultured by adding 2 ml of X-VIVO 15™ to each well plus GM-CSF and IL-4 at final concentrations of 50 ng/ml and 1000 U/ml or the following: cAMP at 0.5 mM, dibutyryl cAMP at 0.1 mM, NaF at 0.25 mM, theophylline at 0.5 mM, PGE at 0.1 mM, Vitamin D3 at 2.5 uM, Vitamin E at 0.1%, Retinoic Acid at 10^−6 M, PMA at 1 pM, Linoleic Acid at 5 ug/ml, or Ca^++ Ionophore at 10 mM. Furthermore, cells were also cultured with the above non-cytokine additives plus GM-CSF at 50 ng/ml. Cells were cultured in a 5% CO2, ambient O2, 37° C. humidified incubator for 7 days.
as §1
Results: In the set of experiments using plastic adherent cells grown in polystyrene tissue culture plates, a Day 0 analysis of the cells was not performed. However, these cultures were analyzed for the presence of DC on days 4 and 7. Analysis perfomed were cell counts, viability via propidium iodide, morphology under Wright-Geimsa staining, and immunohistochemical staining using an anti-S100 antibody.

## CCCCC/C=C\C/C=C\CCCCCCCC(=O)O [Linoleic Acid]
[1]; Day 7, Cell Culture:T cell Ratio 1:1
  Allogeneic MLR. Increase Over Background Proliferation: 6.1
[1]; Day 7, Cell Culture:T cell Ratio 1:10
  Allogeneic MLR. Increase Over Background Proliferation: 3.1
[1]; Day 7, Cell Culture:T cell Ratio 1:100
  Allogeneic MLR. Increase Over Background Proliferation: 1.1
[2]; Day 7
  % DC: 5.00%
[2]; Day 7, projected in culture
  TOTAL # OF DC: 4.63E+05
[2]; day 7
  fold fewer DC (average total number projected in culture) than GM-CSF/IL-4 cultures: approximately 4 fold
[3]; Day 4, with GM-CSF present
  % S100+: 12.00%
[3]; Day 4, without GM-CSF
  % S100+: 20.00%
[3]; Day 7, with GM-CSF present
  % S100+: 26.00%
[3]; Day 7, without GM-CSF
  % S100+: 25.00%
[3]; day 4
  percentage of S100+ cells: 20%
[3]; day 7
  percentage of S100+ cells: next highest percentages
